Laboratory results taken from US3951995A, “Method for industrial production of N-substituted dipropylacetamides” (Laboratorios Made, S.A., priority 1973, dated 1976).

Assays:
[1] = Acute toxicity, lethal dose 50 (LD50), intraperitoneal; set-up: species or system albino rats I.C.R. Swiss; settings: rat, in vivo, ip
Text: The lethal dose 50 (LD50) has been determined on albino rats I.C.R. Swiss, of both sexes, weighing 24 ± 2 g.

[2] = test system: hypnotic effect of the pentobarbital; assay: Potentiation of barbiturates (sodium pentobarbital hypnotic effect); type: in vivo, albino rats I.C.R. Swiss; settings: for Asleep after 180 minutes (number of animals) / Awake after 180 minutes (number of animals): 30 min before sodium pentobarbital 60 mg/kg i.p., of 20; for potentiation of the hypnotic effect of the pentobarbital (in words): sodium pentobarbital 60 mg/kg i.p., I 180, II 35, III 18, Diazepam 3,6 mg/kg
Protocol: Albino rats I.C.R. Swiss weighing 25 ± 2 g have been used.
Lot (1): Sodium pentobarbital 60 mg/kg + I (180 mg/kg).
Lot (2): Sodium pentobarbital 60 mg/kg + II (35 mg/kg).
Lot (3): Sodium pentobarbital 60 mg/kg + III (18 mg/kg).
Lot (5): Sodium pentobarbital 60 mg/kg + distilled H2 O (control lot).
The number of animals awake after 180 minutes after the administration of the barbiturate are noted. The following results have been obtained according to the statistic test of Chi^2 : […]

[3] = test system: convulsions and lethal effect of cardiazol; assay: Anti-convulsant activity against cardiazol; type: in vivo, albino rats I.C.R. Swiss; settings: for number of animals with convulsions / number of dead animals: after 30 minutes cardiazol 1 mg/rat, 10 rats per lot
Protocol: There have been employed 4 lots of 10 rats per lot, which received:
Lot (1): I 180 mg/kg and after 30 minutes cardiazol 1 mg/rat.
Lot (2): II 35 mg/kg and after 30 minutes cardiazol 1 mg/rat.
Lot (3): III 18 mg/kg and after 30 minutes cardiazol 1 mg/rat.

[4] = II 35 mg/kg, cardiazol 1 mg/rat

## CCCC(CCC)C(=O)NCc1ccccn1 [Compound I, N-(2-picolyl)-dipropylacetamide]
[1]
  LD50: > 1600 mg/kg
[2]; I 180 mg/kg, control 1, p<0.001 (Chi^2)
  Asleep after 180 minutes (number of animals): 17
[2]; I 180 mg/kg, control 19, p<0.001 (Chi^2)
  Awake after 180 minutes (number of animals): 3
[2]
  potentiation of the hypnotic effect of the pentobarbital (in words): potentiates clearly the hypnotic effect of the pentobarbital
[3]; I 180 mg/kg, control 10
  number of animals with convulsions: 9
  number of dead animals: 7
[3]; I 180 mg/kg, cardiazol 1 mg/rat
  protection of the lethal effect of the cardiazol: 30%

## CCCC(CCC)C(=O)NCc1cccnc1 [Compound II, N-(3-picolyl)-dipropylacetamide]
[1]
  LD50: 95 mg/kg
[2]; II 35 mg/kg, control 1, p<0.001 (Chi^2)
  Asleep after 180 minutes (number of animals): 14
[2]; II 35 mg/kg, control 19, p<0.001 (Chi^2)
  Awake after 180 minutes (number of animals): 6
[2]
  potentiation of the hypnotic effect of the pentobarbital (in words): potentiates clearly the hypnotic effect of the pentobarbital
[3]; II 35 mg/kg, control 10
  number of animals with convulsions: 0
  number of dead animals: 0
[3]; [4]
  protection of the convulsions: 100%
  protection of the lethal effect of the cardiazol: 100%

## CCCC(CCC)C(=O)NCc1ccncc1 [Compound III, N-(4-picolyl) - dipropylacetamide]
[1]
  LD50: 264 mg/kg
[2]; III 18 mg/kg, control 4, p<0.001 (Chi^2)
  Asleep after 180 minutes (number of animals): 19
[2]; III 18 mg/kg, control 16, p<0.001 (Chi^2)
  Awake after 180 minutes (number of animals): 1
[2]
  potentiation of the hypnotic effect of the pentobarbital (in words): potentiates clearly the hypnotic effect of the pentobarbital
[3]; III 18 mg/kg, control 0
  number of dead animals: 0
[3]; III 18 mg/kg, control 5
  number of animals with convulsions: 1
[3]; III 18 mg/kg, cardiazol 1 mg/rat
  protection of the convulsion effect of cardiazol: 40%

## CN1C(=O)CN=C(c2ccccc2)c2cc(Cl)ccc21 [Diazepam, reference compound]
[2]; Diazepam 3,6 mg/kg, control 4, p<0.02 (Chi^2)
  Asleep after 180 minutes (number of animals): 15
[2]; Diazepam 3,6 mg/kg, control 16, p<0.02 (Chi^2)
  Awake after 180 minutes (number of animals): 5
[2]
  potentiation of the hypnotic effect of the pentobarbital (in words): potentiates clearly the hypnotic effect of pentobarbital, but not as much as the three compounds according to this invention
[3]; general statement
  anti-convulsant / anti-epileptic activity (in words): Results have been positive with cardiazol
